Laboratory results taken from patent US20230116972A1, “CD38 MODULATORS AND METHODS OF USE THEREOF” (Cytokinetics, Inc., priority 2021, published 2023).

Biological target: T1, CYP2C8 (Homo sapiens, UniProt P10632)
T1 construct: Pooled human microsomes and selective CYP probe substrates were used; from tissue; host or cells: pooled human (hepatic) microsomes
T1 sequence (P10632 1-490): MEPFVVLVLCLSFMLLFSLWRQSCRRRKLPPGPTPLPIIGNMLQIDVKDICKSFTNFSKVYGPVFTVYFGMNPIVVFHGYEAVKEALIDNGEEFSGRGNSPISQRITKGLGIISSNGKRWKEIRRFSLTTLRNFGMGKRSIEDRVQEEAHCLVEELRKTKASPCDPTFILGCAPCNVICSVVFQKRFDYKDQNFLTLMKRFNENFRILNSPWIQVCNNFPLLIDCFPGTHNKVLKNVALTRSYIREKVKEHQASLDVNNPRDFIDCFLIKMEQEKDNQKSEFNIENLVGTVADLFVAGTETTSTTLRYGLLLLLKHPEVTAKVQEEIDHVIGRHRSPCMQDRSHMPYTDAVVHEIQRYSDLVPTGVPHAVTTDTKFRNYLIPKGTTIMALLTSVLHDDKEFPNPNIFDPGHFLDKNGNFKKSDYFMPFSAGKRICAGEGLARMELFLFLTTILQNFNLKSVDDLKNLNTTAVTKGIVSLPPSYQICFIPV
Experiment: time dependent inhibition of CYP450 in pooled human microsomes
Type: in vitro ADME
Method: Time dependent inhibition: An assessment of the time-dependent Inhibitory potential of test compounds against the principal human cytochrome P450 isozymes was carried out using standard methods (Grimm et al, “The Conduct of in Vitro Studies to Address Time-Dependent Inhibition of Drug-Metabolizing Enzymes: A Perspective of the Pharmaceutical Research and Manufacturers of America”, Drug Metabolism and Disposition, 37 (7): 1355, 2009). […] Each compound was pre-incubated at 37° C. plus and minus NADPH for 30 min, and with 0 min pre-incubation for assessment of potential time dependent inhibition. LC-MS/MS was used to quantify metabolite formation. […] Note that, in Tables 8 and 9, the “Compound No” corresponds to the compound numbers in Table 1.

CO[C@H]1CC[C@H](NC(=O)c2nccc(-c3cncn3C)n2)CC1 [Compound 148, N-((1r,4r)-4-methoxycyclohexyl)-4-(1-methyl-1H-imidazol-5-yl)pyrimidine-2-carboxamide]
CYP2C8 IC50 fold shift (between 30 min pre-incubation plus NADPH and 0 min): none | IC50 (pre-incubation 0 min): > 30 µM | IC50 (pre-incubation 30 min (NADPH)): > 30 µM | IC50 (pre-incubation 30 min (NO NADPH)): > 30 µM
